Columns and labels:
[1] = biological target: T1, Tryptophan 5-hydroxylase 1 (Homo sapiens, UniProt P17752)
T1 sequence (P17752 whole entry): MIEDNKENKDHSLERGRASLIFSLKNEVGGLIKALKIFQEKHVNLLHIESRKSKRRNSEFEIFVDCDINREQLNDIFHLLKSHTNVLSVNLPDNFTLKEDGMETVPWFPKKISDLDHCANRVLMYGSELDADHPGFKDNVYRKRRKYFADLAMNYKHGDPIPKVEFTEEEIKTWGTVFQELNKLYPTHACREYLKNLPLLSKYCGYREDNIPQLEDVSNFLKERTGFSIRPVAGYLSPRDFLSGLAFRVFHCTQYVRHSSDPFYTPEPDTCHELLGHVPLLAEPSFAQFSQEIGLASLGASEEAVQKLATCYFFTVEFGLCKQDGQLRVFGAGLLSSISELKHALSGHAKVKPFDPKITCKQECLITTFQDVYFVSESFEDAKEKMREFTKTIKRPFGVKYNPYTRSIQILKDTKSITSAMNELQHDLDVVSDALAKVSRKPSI
Description: Inhibition of TPH1 (unknown origin)

[2] = Cmax in rat at 25 mg/kg, po; format: ADME, organism-based; set-up: dose 25 mg/kg, route oral; conditions: in vivo
Rattus norvegicus [3] = assay: Cmax in rat assessed as (S)-8-(2-amino-6-((R)-1-(4-chloro-2-(3-methyl-1H-pyrazol-1-yl)phenyl)-2,2,2-trifluoroethoxy)pyrimidin-4-yl)-2,8-diazaspiro[4.5]decane-3-carboxylic acid at 25 mg/kg, po; format: ADME, organism-based; set-up: dose 25 mg/kg, route oral; conditions: in vivo
Rattus norvegicus [4] = assay: Decrease in 5-HT levels in rat intestinal mucosa at 30 mg/kg, po qd measured after 16 hrs relative to control; format: functional; set-up: scale not given: the % may be the effect or the level left
Mus musculus [5] = assay: Decrease in 5-HT levels in mouse at 10 mg/kg, po administered as single dose for 16 hrs; format: functional
Rattus norvegicus [6] = assay: Decrease in 5-HT levels in rat platelet rich plasma at 30 mg/kg, po bid measured after 16 hrs relative to control; format: functional; set-up: scale not given: the % may be the effect or the level left
Rattus norvegicus [7] = assay: Decrease in 5-HT levels in rat intestinal mucosa at 30 mg/kg, po bid measured after 16 hrs relative to control; format: functional; set-up: scale not given: the % may be the effect or the level left
Mus musculus [8] = assay: Decrease in 5-HT levels in mouse at 50 mg/kg, po administered as single dose for 16 hrs; format: functional
Rattus norvegicus [9] = assay: Half life in rat assessed as (S)-8-(2-amino-6-((R)-1-(4-chloro-2-(3-methyl-1H-pyrazol-1-yl)phenyl)-2,2,2-trifluoroethoxy)pyrimidin-4-yl)-2,8-diazaspiro[4.5]decane-3-carboxylic acid at 1 mg/kg, iv; format: ADME, organism-based; conditions: in vivo
Rattus norvegicus [10] = assay: Decrease in 5-HT levels in rat platelet rich plasma at 10 mg/kg, po qd measured after 16 hrs relative to control; format: functional; set-up: scale not given: the % may be the effect or the level left
[11] = Volume of distribution at steady state in rat at 1 mg/kg, iv; format: ADME, organism-based; conditions: in vivo, read-out: Vdss
[12] = AUC(0 to last) in rat at 25 mg/kg, po; format: ADME, organism-based; set-up: dose 25 mg/kg, time 0 - last, route oral; conditions: in vivo
Rattus norvegicus [13] = assay: Decrease in 5-HT levels in rat intestinal mucosa at 10 mg/kg, po qd measured after 16 hrs relative to control; format: functional; set-up: scale not given: the % may be the effect or the level left
Rattus norvegicus [14] = assay: Decrease in 5-HT levels in rat platelet rich plasma at 30 mg/kg, po qd measured after 16 hrs relative to control; format: functional; set-up: scale not given: the % may be the effect or the level left
[15] = Clearance in rat at 25 mg/kg, po and 1 mg/kg, iv; format: ADME, organism-based; conditions: in vivo
Rattus norvegicus [16] = assay: AUC(0 to last) in rat assessed as (S)-8-(2-amino-6-((R)-1-(4-chloro-2-(3-methyl-1H-pyrazol-1-yl)phenyl)-2,2,2-trifluoroethoxy)pyrimidin-4-yl)-2,8-diazaspiro[4.5]decane-3-carboxylic acid at 25 mg/kg, po; format: ADME, organism-based; set-up: dose 25 mg/kg, route oral, time 0 - last; conditions: in vivo
[17] = Half life in rat at 1 mg/kg, iv; format: ADME, organism-based; conditions: in vivo

Cc1ccn(-c2cc(Cl)ccc2[C@@H](Oc2nc(N)nc(N3CCC4(CC3)CNC(C(=O)O)C4)n2)C(F)(F)F)n1 (stereo partly specified)
IC50 [1]: 2.27 µM

Cc1ccn(-c2cc(Cl)ccc2[C@@H](Oc2cncc(N3CCC4(CC3)CNC(C(=O)O)C4)n2)C(F)(F)F)n1 (stereo partly specified)
IC50 [1]: 20 µM

Cc1ccn(-c2cc(Cl)ccc2[C@@H](Oc2cnnc(N3CCC4(CC3)CNC(C(=O)O)C4)c2)C(F)(F)F)n1 (stereo partly specified)
IC50 [1]: 5.93 µM

CCOC(=O)[C@@H]1CC2(CCN(c3cc(O[C@H](c4ccc(Cl)cc4-n4ccc(C)n4)C(F)(F)F)nc(N)n3)CC2)CN1
Cmax [2]: 249 ng/mL | Cmax (Rattus norvegicus [3]): 2253 ng/mL | Activity (Rattus norvegicus [4]): 62% | inhibition in vivo at 10 mg/kg (Mus musculus [5]): 32% | Activity (Rattus norvegicus [6]): 72% | Activity (Rattus norvegicus [7]): 38% | inhibition in vivo at 50 mg/kg (Mus musculus [8]): 56% | t1/2 (Rattus norvegicus [9]): 271 min | Activity (Rattus norvegicus [10]): 76% | Vd [11]: 3.1 L/kg | AUC(0-t) [12]: 140 ng·h/mL | Activity (Rattus norvegicus [13]): 76% | Activity (Rattus norvegicus [14]): 71% | clearance [15]: 178 mL/min/kg | AUClast (Rattus norvegicus [16]): 2924 ng·h/mL | half-life [17]: 24 min

Cc1ccn(-c2cc(Cl)ccc2[C@@H](Oc2cnc(N3CCC4(CC3)CNC(C(=O)O)C4)cn2)C(F)(F)F)n1 (stereo partly specified)
IC50 [1]: 3.42 µM

Cc1ccn(-c2cc(Cl)ccc2[C@@H](Oc2ccnc(N3CCC4(CC3)CNC(C(=O)O)C4)c2)C(F)(F)F)n1 (stereo partly specified)
IC50 [1]: 0.211 µM

From ChEMBL document CHEMBL3763113, “Discovery of spirocyclic proline tryptophan hydroxylase-1 inhibitors” (Bioorg Med Chem Lett, 2016)
